In patent publication US10041937B2, “Macrophage identification agent, and identification method, sorting method, evaluation method, screening method and kit using the macrophage identifier agent” (CANON KABUSHIKI KAISHA, priority 2013, dated 2018):

Tested on: M1 macrophages and M2 macrophages differentiated from mouse bone marrow cells
Assay: Subtype identification by staining and flow cytometry of M1 and M2 macrophages differentiated from mouse bone marrow cells
Type: cell-based, Balb/c mouse
Details: R=|FM1−FM2|/(WM1+WM2); compound 1 μM
Experimental: The culture of subtypes was performed according to a protocol described in NPL 7. Specifically, bone marrow cells collected from the femur of a Balb/c mouse of 8 to 10 weeks old were dispersed to a concentration of 1×10^6/mL in an IMDM containing 20% FBS and 1% P/S, and 1×10^7 cells were seeded in a 100 mm dish. After further adding an M-CSF (manufactured by Pepro Tech) thereto to a concentration of 50 ng/mL, the cells were incubated for 3 to 4 days in the presence of 5% CO2 at 37° C., so as to differentiate macrophage precursor cells to macrophages. After exchanging the medium, the M-CSF was added to a concentration of 50 ng/mL, and the incubation was performed for further 3 to 4 days in the presence of 5% CO2 at 37° C., and then, the resulting cells were differentiated to macrophage. By adding 200 ng of interferon-γ and 1 μg of […] (both manufactured by Pepro Tech) to the IMDM containing 5% FBS and 1% P/S, the cells were differentiated to the subtype M1. Besides, by adding 100 ng of IL-4 to the IMDM containing 5% FBS and 1% P/S, the cells were differentiated to the subtype M2. After performing the incubation for further 3 days in the presence of 5% CO2 at 37° C., the resultant was rinsed with PBS, and PBS containing 0.25% trypsin and 1 mM EDTA (ethylenediaminetetraacetic acid) was used for collecting, from the dish, the macrophages having been differentiated to the subtypes M1 and M2.
Thereafter, the tube was centrifuged at 180 G for 10 minutes to remove the supernatant, a dye for identifying dead cells (aqua fluorescent reactive dye, manufactured by Invitrogen; which is hereinafter sometimes abbreviated as aqua) was added thereto, and the resultant was incubated at 4° C. for 10 minutes. Subsequently, the tube was centrifuged at 180 G for 10 minutes to remove the supernatant, cells were suspended in a FACS buffer to be analyzed by using FACSCanto (trademark) II flow cytometry apparatus manufactured by BD.
The analysis was performed on a cell population showing a low signal for the aqua, so as to analyze a cell population from which dead cells were eliminated. […] A histogram was prepared by plotting fluorescence intensity obtained in the FITC channel on the abscissa and plotting the number of cells at each fluorescence intensity on the ordinate, which is shown in FIG. 2.
Histograms were prepared by plotting fluorescence intensities obtained in the respective channels on the abscissa and plotting the numbers of cells at each fluorescence intensity on the ordinate. A difference between a fluorescence intensity (FM1) at a peak top of the histogram of the M1 macrophage and a fluorescence intensity (FM2) at a peak top of the histogram of the M2 macrophage is divided by a sum of a peak width (WM1) of the histogram of the M1 macrophage and a peak width (WM2) of the histogram of the M2 macrophage, so as to obtain a resolution R, which was used as an index of the identification ability for a subtype (see the following expression (1)). Resolution R=|FM1−FM2|/(WM1+WM2) Expression (1)

| Compound | Resolution ratio R |
| --- | --- |
| O=C(O)CN1C(=O)/C(=C\c2ccc3c(c2)C2CCCC2N3c2ccccc2)SC1=S (stereo not drawn) [(24)] | 0.347 |
| COc1ccc(N2c3ccc(/C=C4/SC(=S)N(CC(=O)O)C4=O)cc3C3CCCC32)cc1 (stereo not drawn) [(25)] | 0.346 |
| CCN1c2ccc(/C=C3/SC(=S)N(CC(=O)O)C3=O)cc2C2CCCC21 (stereo not drawn) [(26)] | 0.202 |
| O=C(O)CN1C(=O)/C(=C\c2ccc3c(c2)C2CCCC2N3Cc2ccccc2)SC1=S (stereo not drawn) [(28)] | 0.431 |
| CSc1ccc(N2c3ccc(/C=C4/SC(=S)N(CC(=O)O)C4=O)cc3C3CCCC32)cc1 (stereo not drawn) [(30)] | 0.257 |
| O=C(O)CN1C(=O)/C(=C\c2ccc3c(c2)C2CCCC2N3c2ccc(C=C(c3ccccc3)c3ccccc3)cc2)SC1=S (stereo not drawn) [(31)] | 0.248 |
| O=C(O)CCN1C(=O)/C(=C\c2ccc3c(c2)C2CCCC2N3c2ccc(C=C(c3ccccc3)c3ccccc3)cc2)SC1=S (stereo not drawn) [(32)] | 0.476 |
| CC1=NN(c2ccc(C(=O)O)cc2)C(=O)/C1=C\c1ccc2c(c1)C1CCCC1N2c1ccccc1 (stereo not drawn) [(35)] | 0.192 |
| COc1ccc2cc(N3c4ccc(/C=C5\C(=O)N(c6ccc(C(=O)O)cc6)N=C5C)cc4C4CCCC43)ccc2c1 (stereo not drawn) [(36)] | 0.344 |
| CCCCCCCCN1C(=O)/C(=c2\s/c(=C/c3ccc4c(c3)C3CCCC3N4c3ccc(C=C(c4ccccc4)c4ccccc4)cc3)c(=O)n2CC(=O)O)SC1=S (stereo not drawn) [(38)] | 0.724 |
| CCOC(=O)Cn1c(=O)/c(=C\c2ccc3c(c2)C2CCCC2N3Cc2ccccc2)s/c1=C1/SC(=O)N(CC)C1=O (stereo not drawn) [(42)] | 0.616 |
| CCN1C(=O)S/C(=c2/s/c(=C/c3ccc4c(c3)C3CCCC3N4Cc3ccccc3)c(=O)n2CC(=O)O)C1=O (stereo not drawn) [(43)] | 0.411 |

Same assay, conditions: fluorescence intensity at peak top of histogram; compound 1 μM, 37° C., 30 minutes

| Compound | Peak position of M1 macrophage | Peak position of M2 macrophage |
| --- | --- | --- |
| O=C(O)CN1C(=O)/C(=C\c2ccc3c(c2)C2CCCC2N3c2ccccc2)SC1=S (stereo not drawn) [(24)] | 18.1 | 27.6 |
| COc1ccc(N2c3ccc(/C=C4/SC(=S)N(CC(=O)O)C4=O)cc3C3CCCC32)cc1 (stereo not drawn) [(25)] | 27.4 | 18.2 |
| CCN1c2ccc(/C=C3/SC(=S)N(CC(=O)O)C3=O)cc2C2CCCC21 (stereo not drawn) [(26)] | 3.51 | 4.49 |
| O=C(O)CN1C(=O)/C(=C\c2ccc3c(c2)C2CCCC2N3Cc2ccccc2)SC1=S (stereo not drawn) [(28)] | 9.54 | 15.8 |
| CSc1ccc(N2c3ccc(/C=C4/SC(=S)N(CC(=O)O)C4=O)cc3C3CCCC32)cc1 (stereo not drawn) [(30)] | 55.1 | 73.9 |
| O=C(O)CN1C(=O)/C(=C\c2ccc3c(c2)C2CCCC2N3c2ccc(C=C(c3ccccc3)c3ccccc3)cc2)SC1=S (stereo not drawn) [(31)] | 65.1 | 89.0 |
| O=C(O)CCN1C(=O)/C(=C\c2ccc3c(c2)C2CCCC2N3c2ccc(C=C(c3ccccc3)c3ccccc3)cc2)SC1=S (stereo not drawn) [(32)] | 88.7 | 155 |
| CC1=NN(c2ccc(C(=O)O)cc2)C(=O)/C1=C\c1ccc2c(c1)C1CCCC1N2c1ccccc1 (stereo not drawn) [(35)] | 1.15 | 1.29 |
| COc1ccc2cc(N3c4ccc(/C=C5\C(=O)N(c6ccc(C(=O)O)cc6)N=C5C)cc4C4CCCC43)ccc2c1 (stereo not drawn) [(36)] | 5.70 | 3.82 |
| CCCCCCCCN1C(=O)/C(=c2\s/c(=C/c3ccc4c(c3)C3CCCC3N4c3ccc(C=C(c4ccccc4)c4ccccc4)cc3)c(=O)n2CC(=O)O)SC1=S (stereo not drawn) [(38)] | 3.74 | 1.63 |
| CCOC(=O)Cn1c(=O)/c(=C\c2ccc3c(c2)C2CCCC2N3Cc2ccccc2)s/c1=C1/SC(=O)N(CC)C1=O (stereo not drawn) [(42)] | 4.19 | 1.79 |
| CCN1C(=O)S/C(=c2/s/c(=C/c3ccc4c(c3)C3CCCC3N4Cc3ccccc3)c(=O)n2CC(=O)O)C1=O (stereo not drawn) [(43)] | 7.14 | 13.0 |

Same assay, conditions: rated from resolution R

| Compound | Evaluation of macrophage subtype identification |
| --- | --- |
| O=C(O)CN1C(=O)/C(=C\c2ccc3c(c2)C2CCCC2N3c2ccccc2)SC1=S (stereo not drawn) [(24)] | B (the compound is good in the subtype identification (namely, the resolution R is 0.15 or more and less than 0.5)) |
| COc1ccc(N2c3ccc(/C=C4/SC(=S)N(CC(=O)O)C4=O)cc3C3CCCC32)cc1 (stereo not drawn) [(25)] | B (the compound is good in the subtype identification (namely, the resolution R is 0.15 or more and less than 0.5)) |
| CCN1c2ccc(/C=C3/SC(=S)N(CC(=O)O)C3=O)cc2C2CCCC21 (stereo not drawn) [(26)] | B (the compound is good in the subtype identification (namely, the resolution R is 0.15 or more and less than 0.5)) |
| O=C(O)CN1C(=O)/C(=C\c2ccc3c(c2)C2CCCC2N3Cc2ccccc2)SC1=S (stereo not drawn) [(28)] | B (the compound is good in the subtype identification (namely, the resolution R is 0.15 or more and less than 0.5)) |
| CSc1ccc(N2c3ccc(/C=C4/SC(=S)N(CC(=O)O)C4=O)cc3C3CCCC32)cc1 (stereo not drawn) [(30)] | B (the compound is good in the subtype identification (namely, the resolution R is 0.15 or more and less than 0.5)) |
| O=C(O)CN1C(=O)/C(=C\c2ccc3c(c2)C2CCCC2N3c2ccc(C=C(c3ccccc3)c3ccccc3)cc2)SC1=S (stereo not drawn) [(31)] | B (the compound is good in the subtype identification (namely, the resolution R is 0.15 or more and less than 0.5)) |
| O=C(O)CCN1C(=O)/C(=C\c2ccc3c(c2)C2CCCC2N3c2ccc(C=C(c3ccccc3)c3ccccc3)cc2)SC1=S (stereo not drawn) [(32)] | B (the compound is good in the subtype identification (namely, the resolution R is 0.15 or more and less than 0.5)) |
| CC1=NN(c2ccc(C(=O)O)cc2)C(=O)/C1=C\c1ccc2c(c1)C1CCCC1N2c1ccccc1 (stereo not drawn) [(35)] | B (the compound is good in the subtype identification (namely, the resolution R is 0.15 or more and less than 0.5)) |
| COc1ccc2cc(N3c4ccc(/C=C5\C(=O)N(c6ccc(C(=O)O)cc6)N=C5C)cc4C4CCCC43)ccc2c1 (stereo not drawn) [(36)] | B (the compound is good in the subtype identification (namely, the resolution R is 0.15 or more and less than 0.5)) |
| CCCCCCCCN1C(=O)/C(=c2\s/c(=C/c3ccc4c(c3)C3CCCC3N4c3ccc(C=C(c4ccccc4)c4ccccc4)cc3)c(=O)n2CC(=O)O)SC1=S (stereo not drawn) [(38)] | A (The compound is very good in the subtype identification (namely, the resolution R is 0.5 or more)) |
| CCOC(=O)Cn1c(=O)/c(=C\c2ccc3c(c2)C2CCCC2N3Cc2ccccc2)s/c1=C1/SC(=O)N(CC)C1=O (stereo not drawn) [(42)] | A (The compound is very good in the subtype identification (namely, the resolution R is 0.5 or more)) |
| CCN1C(=O)S/C(=c2/s/c(=C/c3ccc4c(c3)C3CCCC3N4Cc3ccccc3)c(=O)n2CC(=O)O)C1=O (stereo not drawn) [(43)] | B (the compound is good in the subtype identification (namely, the resolution R is 0.15 or more and less than 0.5)) |
